Reference: patent US20040072902A1, “Methods for inducing apoptosis and inhibiting proliferation in cancer cells” (priority 2003, published 2004)

Key:
[1] = system: AsPC-1 human pancreatic cancer cells; test: Thymidine incorporation proliferation assay in AsPC-1 cells; format: cell-based
Description: This can be seen in FIG. 1A (results using myristoleic acid obtained from Sigma Chemicals (St. Louis, Mo.)) and FIG. 1B (results using myristoleic acid obtained from Matreya, Inc. (State College, Pa.)).
(§1) The results are presented in FIG. 2A (cetyl myristoleic acid) and FIG. 2B (palmitoleic acid).
(§2) The thymidine incorporation experiments described in Example 1 were repeated in triplicate on each of two malignant human pancreatic cancer cell lines, AsPC-1 and PANC-1. The results are set forth in FIG. 3A (AsPC-1) and FIG. 3B (PANC-1).

[2] = system: AsPC-1 human pancreatic cancer cells; test: Cell morphology during inhibition of proliferation; format: cell-based; conditions: membrane blebbing, cellular rounding, detachment, data not shown
Description: as §1

[3] = system: PANC-1 human pancreatic cancer cells; test: Thymidine incorporation proliferation assay in PANC-1 cells; format: cell-based
Description: as §2

AsPC-1 cells [4] = test: Annexin V binding (early apoptosis); format: cell-based, human; conditions: 10 μg/ml; 3 or 5 hours after beginning treatment
Experimental: The effect of myristoleic acid (10 μg/ml) (“MA”) on annexin V binding in AsPC-1 cells at 3 or 5 hours after beginning treatment is shown in FIG. 4. […] This specific test utilizes the translocation of phophatidyl serine from the inner to outer plasma membrane, which is a feature of early apoptosis. The results set forth in FIG. 4 are representative of three separate experiments.

AsPC-1 cells [5] = test: TUNEL assay (DNA fragmentation); format: cell-based, human; conditions: 10 μg/ml; 24 hours; versus control
Experimental: The effect of myristoleic acid (10 μg/ml) (“MA”) on terminal deoxynucleotidyl transferase-mediated dUTP nick end labeling (“TUNEL”) assay at 24 hours in AsPC-1 cells was investigated. The results are presented in FIGS. 5A (control) and 5B (10 μg/ml myristoleic acid). […] The results set forth in FIGS. 5A and 5B are representative of three separate experiments.

AsPC-1 xenografts [6] = test: Growth of AsPC-1 xenografts in athymic mice; format: in vivo; conditions: 250 mg/kg/day intraperitoneal
Experimental: (§3) The effects of daily intraperitoneal injection of myristoleic acid (250 mg/kg/day) on the growth of AsPC-1 and HPAC xenografts in athymic mice were investigated. Animals were injected daily with myristoleic acid (250 mg/kg/day) (labeled “myristoleic acid” in FIG. 6) or with a control solution (labeled “control” in FIG. 6) once visible tumors were established (about five days after implantation). […] The experiment was repeated twice with AsPC-1 cells and also with HPAC cells. The results set forth in FIG. 6 are representative of these experiments.
(§4) Tumor volumes of the above-described athymic mice were measured as a function of time, and the results are presented in FIG. 7A (AsPC-1 cancer cells) and FIG. 7B (HPAC cancer cells).
(§5) At the end of the experiment, the AsPC-1 and HPAC xenografts were harvested from the athymic mice and the weights of the tumors were measured.

HPAC xenografts = test: Growth of HPAC xenografts in athymic mice; format: in vivo; conditions: 250 mg/kg/day intraperitoneal
Experimental: as §3, §4, §5

AsPC-1 xenografts [7] = test: In situ TUNEL assay of harvested xenografts; format: in vivo, athymic mice; conditions: AsPC-1 xenografts harvested at end of experiment; versus vehicle (minimal staining)
Experimental: To determine whether the effects observed in the athymic mouse experiments described in Example 7 might be due to apoptosis, in situ TUNEL assays were carried out on the AsPC-1 xenografts that were harvested from the athymic mice at the end of the experiment. Images of xenograft sections from mice treated with the control solution (vehicle only) (FIGS. 9A and 9B) show minimal staining.

CCCC/C=C\CCCCCCCC(=O)OCCCCCCCCCCCCCCCC [cetyl myristoleic acid]
inhibition of proliferation as measured by thymidine incorporation ([1]; Example 2): concentration-dependent inhibition of proliferation
morphological changes accompanying inhibition of proliferation [2]: morphological changes associated with apoptosis

CCCC/C=C\CCCCCCCC(=O)O [myristoleic acid]
anti-proliferative activity, concentration range of effects [1]: low micromolar range
inhibition of proliferation as measured by thymidine incorporation ([1]; 24 hours, myristoleic acid from two commercial sources (Sigma, Matreya)): concentration-dependent inhibition of proliferation
effects on pancreatic cancer cell proliferation (thymidine incorporation) ([1]; repeated in triplicate): concentration-dependent effects
anti-proliferative activity, concentration range of effects [3]: low micromolar range
effects on pancreatic cancer cell proliferation (thymidine incorporation) ([3]; repeated in triplicate): concentration-dependent effects
morphological changes accompanying inhibition of proliferation [2]: morphological changes associated with apoptosis
annexin V binding (AsPC-1 cells [4]): Marked membrane fluorescence
number of apoptotic cells by TUNEL assay (AsPC-1 cells [5]): marked increase in the number of apoptotic cells
tumor size (AsPC-1 xenografts [6]; daily, AsPC-1 xenografts, throughout the experimental period): marked reduction in tumor size
tumor weight (AsPC-1 xenografts [6]; AsPC-1, at the end of the experiment): marked reduction
tumor volume (AsPC-1 xenografts [6]; AsPC-1, throughout the experimental period): marked reduction
tumor size (HPAC xenografts; daily, HPAC xenografts, throughout the experimental period): marked reduction in tumor size
tumor weight (HPAC xenografts; HPAC, at the end of the experiment): marked reduction
tumor volume (HPAC xenografts; HPAC, throughout the experimental period): marked reduction
apoptotic cells in xenograft sections (in situ TUNEL) (AsPC-1 xenografts [7]): many apoptotic cells

CCCCCC/C=C\CCCCCCCC(=O)O [palmitoleic acid]
inhibition of proliferation as measured by thymidine incorporation ([1]; Example 2): concentration-dependent inhibition of proliferation
morphological changes accompanying inhibition of proliferation [2]: morphological changes associated with apoptosis
